In US9981913B2, “Liver X receptor (LXR) modulators” (Ralexar Therapeutics, Inc., priority 2013, dated 2018) one finds EC50 data, which are given here for 16 molecules.

For the test, the target named is T1, human LXRβ (AA 153-461) LBD (Homo sapiens, UniProt P55055).
T1 construct: human LXRβ (AA 153-461) LBD plasmid; expressed in transfected cells; host or cells: HEK 293 cells, transient transfection with Fugene 6
T1 sequence (P55055 153-460 limits assumed): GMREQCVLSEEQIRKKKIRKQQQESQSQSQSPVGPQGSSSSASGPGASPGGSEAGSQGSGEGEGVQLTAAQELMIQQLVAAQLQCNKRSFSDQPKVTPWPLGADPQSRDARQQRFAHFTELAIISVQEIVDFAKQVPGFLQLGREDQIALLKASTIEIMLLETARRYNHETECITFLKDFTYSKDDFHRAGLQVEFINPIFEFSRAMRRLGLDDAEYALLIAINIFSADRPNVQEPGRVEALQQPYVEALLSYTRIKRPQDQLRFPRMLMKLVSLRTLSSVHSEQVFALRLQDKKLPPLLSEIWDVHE
The experiment in a line: Gal4 LXRβ cotransfection assay (LXRβ Gal fusion assay). It counts as cell-based. The following applies: transiently transfected HEK 293 cells, Gal4-responsive luciferase reporter, compounds 0.01-10 μM, triplicate. On the procedure:
For transient transfection of HEK 293 cells, 6×10^3 cells are plated into 96-well dishes. Each well is transfected with 25 ng 5×UAS-luciferase reporter (pG5luc) and 25 ng of […] human LXRβ (AA 153-461) LBD plasmid using Fugene 6 reagent (Roche; Indianapolis, Ind.). The chimeric protein is assessed for the ability to transactivate a Gal4-responsive luciferase reporter plasmid in a concentration-responsive manner to compounds (0.01-10 μM). Luciferase activity at each dose concentration is measured in triplicate using standard substrate reagents (BD Biosciences; San Diego, Calif.). Data is expressed as relative light units and are shown below in Table 1.
(In general: Reporter assays use an easily measured gene product as a stand-in for the process of interest.)

In turn, `CCOC(=O)Cc1nc(C(F)(F)F)cn1-c1ccc(-c2cccc(S(C)(=O)=O)c2)cc1` [Example 1, Ethyl 2-(1-(3′-(methylsulfonyl)-[1,1′-biphenyl]-4-yl)-4-(trifluoromethyl)-1H-imidazol-2-yl)acetate] showed an EC50 of 1 to 10 µM.

Consider `CS(=O)(=O)c1cccc(-c2ccc(-n3cc(C(F)(F)F)nc3CC(=O)O)cc2)c1` [Example 2, 2-(1-(3′-(Methylsulfonyl)-[1,1′-biphenyl]-4-yl)-4-(trifluoromethyl)-1H-imidazol-2-yl)acetic acid], for which the EC50 was above 10 µM.

The molecule `CCOC(=O)Cc1nc(C(F)(F)F)cn1-c1ccc(-c2ccc(CO)c(S(C)(=O)=O)c2)cc1` [Example 3, Ethyl 2-(1-(4′-(hydroxymethyl)-3′-(methylsulfonyl)-[1,1′-biphenyl]-4-yl)-4-(trifluoromethyl)-1H-imidazol-2-yl)acetate] returned an EC50 below 1 µM.

With `CS(=O)(=O)c1cc(-c2ccc(-n3cc(C(F)(F)F)nc3CC(=O)O)cc2)ccc1CO` [Example 4, 2-(1-(4′-(Hydroxymethyl)-3′-(methylsulfonyl)[1,1′-biphenyl]-4-yl)-4-(trifluoromethyl)-1H-imidazol-2-yl)acetic acid], the EC50 was above 10 µM.

In turn, `CCOC(=O)c1cc(-c2ccc(-c3cccc(S(C)(=O)=O)c3)cc2)n(CC(C)C)n1` [Example 5, Ethyl 1-isobutyl-5-(3′-(methylsulfonyl)-[1,1′-biphenyl]-4-yl)-1H-pyrazole-3-carboxylate] registered an EC50 below 1 µM.

The molecule `CC(C)Cn1nc(C(=O)O)cc1-c1ccc(-c2cccc(S(C)(=O)=O)c2)cc1` [Example 6, 1-Isobutyl-5-(3′-(methylsulfonyl)-[1,1′-biphenyl]-4-yl)-1H-pyrazole-3-carboxylic acid] had an EC50 above 10 µM.

With `CCOC(=O)c1cc(-c2ccc(-c3ccc(CO)c(S(C)(=O)=O)c3)cc2)n(CC(C)C)n1` [Example 7, Ethyl 5-(4′-(hydroxymethyl)-3′-(methylsulfonyl)[1,1′-biphenyl]-4-yl)-1-isobutyl-1H-pyrazole-3-carboxylate], the EC50 was in the range of 1 to 10 µM.

As for `CC(C)Cn1nc(C(=O)O)cc1-c1ccc(-c2ccc(CO)c(S(C)(=O)=O)c2)cc1` [Example 8, 5-(4′-(Hydroxymethyl)-3′-(methylsulfonyl)-[1,1′-biphenyl]-4-yl)-1-isobutyl-1H-pyrazole-3-carboxylic acid], the concentration giving a half-maximal response (EC50) is above 10 µM.

The molecule `CCOC(=O)c1cn(-c2ccc(-c3cccc(S(C)(=O)=O)c3)cc2)c(CC(C)C)n1` [Example 9, Ethyl 2-isobutyl-1-(3′-(methylsulfonyl)-[1,1′-biphenyl]-4-yl)-1H-imidazole-4-carboxylate] registered an EC50 of 1 to 10 µM.

The molecule `CC(C)Cc1nc(C(=O)O)cn1-c1ccc(-c2cccc(S(C)(=O)=O)c2)cc1` [Example 10, 2-Isobutyl-1-(3′-(methylsulfonyl)-[1,1′-biphenyl]-4-yl)-1H-imidazole-4-carboxylic acid] displayed an EC50 above 10 µM.

Regarding `CCOC(=O)c1cn(-c2ccc(-c3ccc(CO)c(S(C)(=O)=O)c3)cc2)c(CC(C)C)n1` [Example 11, Ethyl 1-(4′-(hydroxymethyl)-3′-(methylsulfonyl)-[1,1′-biphenyl]-4-yl)-2-isobutyl-1H-imidazole-4-carboxylate], the EC50 lay in the range of 1 to 10 µM.

Molecule `CC(C)Cc1nc(C(=O)O)cn1-c1ccc(-c2ccc(CO)c(S(C)(=O)=O)c2)cc1` [Example 12, 1-(4′-(Hydroxymethyl)-3′-(methylsulfonyl)-[1,1′-biphenyl]-4-yl)-2-isobutyl-1H-imidazole-4-carboxylic acid] showed an EC50 above 10 µM.

For the molecule `C=C(C)c1cc(-c2ccc(-c3cccc(S(C)(=O)=O)c3)cc2)n(CC(=O)OCC)n1` [Example 13, Ethyl 2-(5-(3′-(methylsulfonyl)-[1,1′-biphenyl]-4-yl)-3-(prop-1-en-2-yl)-1H-pyrazol-1-yl)acetate], the EC50 is below 1 µM.

`C=C(C)c1cc(-c2ccc(-c3cccc(S(C)(=O)=O)c3)cc2)n(CC(=O)O)n1` [Example 14, 2-(5-(3′-(Methylsulfonyl)-[1,1′-biphenyl]-4-yl)-3-(prop-1-en-2-yl)-1H-pyrazol-1-yl)acetic acid]: the EC50 was above 10 µM.

For `CCOC(=O)Cn1nc(C(C)C)cc1-c1ccc(-c2cccc(S(C)(=O)=O)c2)cc1` [Example 15, Ethyl 2-(3-isopropyl-5-(3′-(methylsulfonyl)-[1,1′-biphenyl]-4-yl)-1H-pyrazol-1-yl)acetate], the EC50 lay within 1 to 10 µM.

As to `CC(C)c1cc(-c2ccc(-c3cccc(S(C)(=O)=O)c3)cc2)n(CC(=O)O)n1` [Example 16, 2-(3-Isopropyl-5-(3′-(methylsulfonyl)-[1,1′-biphenyl]-4-yl)-1H-pyrazol-1-yl)acetic acid], the EC50 is above 10 µM.

One may read the EC50 as the midpoint of the concentration-response curve. The low end stands for an effect from little substance, the high end for a need for much substance.
